# Source: patent publication US20190327965A1, “AGENTS AND METHODS FOR TREATMENT OF PATHOGENS” (Hexima Limited, priority 2014, published 2019)
# Like-named read-outs stand apart in the source and are kept apart here. Bridge positions count the residues as written; N and C are the ends. Peptide text beside a SMILES is read from it.
# Legend:
# [1] = tested on: Colletotrichum graminicola
# Saccharomyces cerevisiae = assay: Growth inhibition by hairpin peptide alone, Saccharomyces cerevisiae; assay type: cell-based; details: hairpin peptide on its own
# From the text: Some α-hairpinin and β-hairpin peptides show efficacy on their own against pathogens at a concentration higher than the concentration used in a combination with a plant defensin.
# [2] = tested on: Fusarium graminearum (Fgr); assay type: cell-based; parameters: relative uptake of SYTOX green: reference not given here
# [3] = tested on: Fusarium oxysporum f. sp. vasinfectum (Fov); assay type: cell-based; parameters: relative uptake of SYTOX green: reference not given here
Molecule,IC50 (Saccharomyces cerevisiae) [µM],Permeability index [2],relative uptake of SYTOX green [2],Permeability index [3],relative uptake of SYTOX green [3],other results
"CC[C@H](C)[C@@H]1NC(=O)[C@H](CCCCN)NC(=O)[C@H]([C@@H](C)CC)NC(=O)[C@H](CCC(N)=O)NC(=O)[C@H](CCCNC(=N)N)NC(=O)[C@@H](NC(=O)[C@@H](NC(=O)[C@H](CO)NC(=O)[C@@H](N)CCCNC(=N)N)C(C)C)CSSC[C@@H](C(=O)N[C@H](C(=O)N[C@@H](CC(N)=O)C(=O)N[C@@H](CCCNC(=N)N)C(=O)N2CCC[C@H]2C(=O)N[C@@H](Cc2ccc(O)cc2)C(=O)O)[C@@H](C)O)NC(=O)[C@H](CCCCN)NC(=O)[C@H](Cc2ccc(O)cc2)NC(=O)[C@H](Cc2ccc(O)cc2)NC(=O)[C@@H]2CSSC[C@H](NC1=O)C(=O)N[C@@H](CCCNC(=N)N)C(=O)N[C@@H](CCCNC(=N)N)C(=O)N[C@@H](CCCNC(=N)N)C(=O)NCC(=O)NCC(=O)N2 [Androctonin] (H-RSVCRQIKICRRRGGCYYKCTNRPY-OH; disulfide 4-20, 10-16 (inferred); N-terminus and C-terminus assumed)",–,–,–,–,–,IC50 (Fusarium graminearum): 7 µM; IC50 (Candida albicans): 7 µM; IC50 (Trichophyton rubrum): 1 µM; IC50 [1]: 13 µM
"C[C@@H](O)[C@@H]1NC(=O)[C@H](CCC(N)=O)NC(=O)[C@@H]2CSSC[C@H](NC(=O)[C@H](CCC(N)=O)NC(=O)[C@H](CCCNC(=N)N)NC(=O)[C@H](CCC(N)=O)NC(=O)[C@H](CCCNC(=N)N)NC(=O)[C@H](CCC(=O)O)NC(=O)[C@@H]3CCCN3C(=O)[C@H](CO)NC(=O)[C@H](CCC(N)=O)NC(=O)[C@H](CCC(=O)O)NC(=O)[C@H](CCC(N)=O)NC1=O)C(=O)N[C@@H](CCC(N)=O)C(=O)N[C@@H](CCC(N)=O)C(=O)N[C@@H](CCCNC(=N)N)C(=O)N[C@H](C(=O)N[C@@H](CCC(=O)O)C(=O)N[C@@H](CCCNC(=N)N)C(=O)N[C@@H](CCC(N)=O)C(=O)N[C@@H](Cc1ccc(O)cc1)C(=O)N[C@@H](CCCCN)C(=O)N[C@@H](CCC(=O)O)C(=O)O)CSSC[C@H](NC(=O)[C@H](CCCNC(=N)N)NC(=O)[C@H](Cc1c[nH]cn1)NC(=O)[C@H](Cc1ccc(O)cc1)NC(=O)[C@H](CCC(N)=O)NC(=O)[C@H](CCC(N)=O)NC(=O)[C@H](CCC(N)=O)NC(=O)[C@@H]1CCCN1C(=O)[C@@H](N)CC(=O)O)C(=O)N[C@@H](CCC(N)=O)C(=O)N[C@@H](CCCNC(=N)N)C(=O)N[C@@H](CCCNC(=N)N)C(=O)N2 [Cil_HPN_14F] (H-DPQQQYHRCQRRCQTQEQSPERQRQCQQRCERQYKE-OH; disulfide 9-30, 13-26 (inferred); N-terminus and C-terminus assumed)",12,–,–,–,–,–
"CSCC[C@@H]1NC(=O)[C@@H]2CSSC[C@H](NC(=O)[C@H](CCC(=O)O)NC(=O)[C@H](CCCNC(=N)N)NC(=O)[C@H](CCCNC(=N)N)NC(=O)[C@@H](NC(=O)[C@H](CCC(=O)O)NC(=O)[C@H](CCCCN)NC(=O)CNC(=O)CNC(=O)CNC(=O)CNC(=O)[C@@H](N)Cc3c[nH]cn3)CSSC[C@@H](C(=O)N[C@@H](CCC(=O)O)C(=O)N[C@@H](Cc3c[nH]c4ccccc34)C(=O)N[C@@H](CCCNC(=N)N)C(=O)N[C@@H](CCCNC(=N)N)C(=O)N[C@@H](Cc3c[nH]cn3)C(=O)N[C@@H](CCC(=O)O)C(=O)O)NC(=O)[C@H](CCC(N)=O)NC(=O)[C@H](CCCNC(=N)N)NC1=O)C(=O)N[C@@H](CCCNC(=N)N)C(=O)NCC(=O)N[C@@H](Cc1ccc(O)cc1)C(=O)N[C@@H](CCCNC(=N)N)C(=O)N[C@@H](CC(=O)O)C(=O)N[C@@H](CCC(=O)O)C(=O)N1CCC[C@H]1C(=O)N[C@@H](Cc1c[nH]c3ccccc13)C(=O)N[C@@H](CCCNC(=N)N)C(=O)N[C@@H](CCCCN)C(=O)N[C@@H](CCC(N)=O)C(=O)N[C@@H](CCC(=O)O)C(=O)N2 [Osa_HPN_86B] (H-HGGGGKECRRECRGYRDEPWRKQECMRQCEWRRHE-OH; disulfide 8-29, 12-25 (inferred); N-terminus and C-terminus assumed)",8,–,–,–,–,IC50 (Fusarium graminearum): 18 µM; IC50 (Candida albicans): 9 µM; IC50 [1]: 13 µM
"CSCC[C@@H]1NC(=O)[C@H](CC(C)C)NC(=O)[C@@H]2CSSC[C@H](NC(=O)[C@H](CCCNC(=N)N)NC(=O)[C@H](CCC(=O)O)NC(=O)[C@H](CCCNC(=N)N)NC(=O)[C@@H](NC(=O)[C@H](CCCCN)NC(=O)[C@H](CCCNC(=N)N)NC(=O)[C@H](CCCNC(=N)N)NC(=O)CNC(=O)[C@H](CCC(=O)O)NC(=O)CN)CSSC[C@@H](C(=O)N[C@@H](CCCCN)C(=O)N[C@@H](CO)C(=O)N[C@@H](CCCNC(=N)N)C(=O)N[C@@H](CCC(=O)O)C(=O)N[C@@H](CCC(N)=O)C(=O)N[C@@H](CCC(=O)O)C(=O)O)NC(=O)[C@H](CC(=O)O)NC1=O)C(=O)N[C@@H](CCC(=O)O)C(=O)N[C@@H](CCCNC(=N)N)C(=O)N[C@@H](Cc1c[nH]cn1)C(=O)N[C@@H](Cc1c[nH]cn1)C(=O)N[C@@H](CCCNC(=N)N)C(=O)NCC(=O)NCC(=O)N[C@@H](CC(=O)O)C(=O)N[C@@H](Cc1c[nH]c3ccccc13)C(=O)N[C@@H](Cc1c[nH]c3ccccc13)C(=O)N[C@@H](CCC(=O)O)C(=O)N[C@@H](CCCCN)C(=O)N[C@@H](CCC(N)=O)C(=O)N[C@@H](CCCNC(=N)N)C(=O)N2 [Sbi_HPN_104C] (H-GEGRRKCRERCERHHRGGDWWEKQRCLMDCKSREQE-OH; disulfide 7-30, 11-26 (inferred); N-terminus and C-terminus assumed)",> 20,–,–,–,–,IC50 (Fusarium graminearum): 7 µM; IC50 (Candida albicans): 7 µM; IC50 [1]: 16 µM
"CC(C)[C@@H]1NC(=O)[C@@H]2CSSC[C@H](NC(=O)[C@H](CCC(N)=O)NC(=O)[C@H](CCCCN)NC(=O)[C@H](CCC(N)=O)NC(=O)[C@@H](NC(=O)[C@H](CCCNC(=N)N)NC(=O)[C@@H](N)CC(=O)O)CSSC[C@@H](C(=O)N[C@@H](CCCNC(=N)N)C(=O)N[C@@H](CCCNC(=N)N)C(=O)NCC(=O)N[C@@H](CCCNC(=N)N)C(=O)NCC(=O)N[C@@H](CO)C(=O)O)NC(=O)[C@H](CC(=O)O)NC(=O)[C@H](CCCNC(=N)N)NC1=O)C(=O)N[C@@H](CCC(N)=O)C(=O)N[C@@H](Cc1c[nH]cn1)C(=O)N[C@@H](Cc1ccc(O)cc1)C(=O)N[C@@H](CO)C(=O)N[C@@H](CC(=O)O)C(=O)N[C@@H](Cc1c[nH]c3ccccc13)C(=O)N[C@@H](CC(=O)O)C(=O)N[C@@H](CCCCN)C(=O)N[C@@H](CCCCN)C(=O)N[C@@H](CCC(N)=O)C(=O)N[C@@H](CCC(N)=O)C(=O)N2 [Sbi_HPN_104I] (H-DRCQKQCQHYSDWDKKQQCVRDCRRGRGS-OH; disulfide 3-23, 7-19 (inferred); N-terminus and C-terminus assumed)",> 20,–,–,–,–,–
"EcAMP1: α-hairpinin peptide, SEQ ID NO:36, produced recombinantly in E. coli (GSGRGSCRSQCMRRHEDEPWRVQECVSQCRRRRGGGD; EcAMP1 Echinochloa crus-galli)",8,–,–,–,–,IC50 (Fusarium graminearum; read-out: IC50 Fgr): 7 µM; IC50 (Candida albicans; read-out: IC50 C. alb): 8 µM; IC50 ([1]; read-out: IC50 Cgr): 20 µM
"HXL001: Class I permeabilizing defensin, mature protein SEQ ID NO:25 (RHCLSQSHRFKGLCMSSNNCANVCQTENFPGGECKAEGATRKCFCKKIC; HXL001 Zea Mays)",–,0.9,300,–,–,–
"HXL002: permeabilizing defensin, mature protein SEQ ID NO:26 (RDCLSQSHKFKGACLSSSNCAAVCRTENFPDGECHTHNFARKCFCKRAC; HXL002 Triticum aestivum)",–,1.0,320,0.9,260,–
"HXL004: Class I permeabilizing defensin, mature protein SEQ ID NO:27 (RTCESQSHRFKGLCFSRSNCASVCHTEGFNGGHCRGFRRRCFCTRHC; HXL004 Nicotiana benthamiana)",–,1.6,500,–,–,–
"HXL007: permeabilizing defensin, mature protein SEQ ID NO:28 (RTCESLADTYRGPCFTDGSCDDHCKNKEHLISGRCRNDFRCWCTRNC; HXL007 Cyamopsis tetragonoloba)",–,–,–,1.2,350,–
"HXL008: Class I permeabilizing defensin, mature protein SEQ ID NO:29 (KVCTKPSKFFKGLCGTDGACTTACRKEGLHSGYCQLKGFLNSVCVCRKHC; HXL008 Picramnia pentandra)",–,0.9,300,0.8,225,–
"HXL013: Class I permeabilizing defensin, mature protein SEQ ID NO:30 (KDCLTRRHGFQGRCLFDRQCAHVCRSDGFIGGQCRGPLRKCFCSRPC; HXL013 Glycine max)",–,1.4,450,–,–,–
"HXP4: synthetic (artificial) defensin variant, SEQ ID NO:8 (RECKTESHRFKGPCITKPPCRKACISEKFTDGHCSKILRRCLCTKPC; HXP4 protein)",–,1.3,400,0.7,220,–
Hordothionin [reference compound],–,0.4,120,–,–,–
"NaD1: Class II Solanaceous defensin from flowers of ornamental tobacco Nicotiana alata (Q8GTM0) (RECKTESNTFPGICITKPPCRKACISEKFTDGHCSKILRRCLCTKPC; UniProt Q8GTM0 26-72, looked up)",–,1.0,320,1.0,300,–
"RsAFP2: defensin compared in the Fgr permeabilization assay (QKLCQRPSGTWSGVCGNNNACKNQCIRLEKARHGSCNYVFPAHKCICYFPC; UniProt P30230 30-80, looked up) [reference compound]",–,0.3,100,–,–,–
